Laboratory results reported in US20220409617A1, “Drug Formulations and Methods of Treatment for Metabolic Disorders” (The Regents of the University of California, priority 2019, published 2022).

System: diet-induced obesity
Test: Weight loss intervention study in HFD-fed mice
Assay type: in vivo
Method: Given its ability to correct HFD-induced mitochondrial fragmentation in vivo, sphingolipid-like compound 893 was evaluated as an interventional therapy for diet-induced obesity. Six-week old male, C57BL/6J mice were fed the HFD for 45 days; an age-matched cohort of control mice was maintained on the SD throughout the study. After 45 days, the average body weight of HFD-fed mice was approximately 130% that of chow-fed mice (FIGS. 15 to 17). Using quantitative nuclear magnetic resonance imaging, fat mass represented 21% of the body weight of mice that had consumed the HFD for 45 days and 12% of body weight in controls fed the standard diet; changes in lean body mass were of lesser magnitude (FIG. 17). At this point, HFD-fed mice were randomly assigned to receive vehicle (water), 60 mg/kg, or 120 mg/kg sphingolipid-like compound 893 by gavage; SD mice were treated with vehicle. Based on the increased activity of mice during the dark cycle (ZT12-ZT24) and the plasma pharmacokinetics of orally administered sphingolipid-like compound 893 (see FIG. 12), mice were treated at ZT8.5 on Mondays, Wednesdays, and Fridays. […] In the group receiving 120 mg/kg sphingolipid-like compound 893, the rate of weight loss slowed after 10 days. […] Despite continued treatment with the high dose of sphingolipid-like compound 893, weight loss plateaued once body weight matched that of SD controls (FIGS. 16 and 18). […] As in a prior report where mice were dosed 5-7 days a week for 11 weeks (S. M. Kim, et al., 2016, cited supra), sphingolipid-like compound 893 was well-tolerated, and the behavior of sphingolipid-like compound 893-treated mice was overtly normal throughout the study.
All animal experiments were performed in accordance with the Institutional Animal Care and Use Committee of University of California, Irvine. Male mice were used in all experiments. C57BL/6J mice (stock no 000664) and ob/ob mice (stock no 000632) were purchased from the Jackson Laboratory and were acclimated for 7 days prior to beginning experiments. Mice were housed under a 12:12 h light-dark cycle at 20-22° C. in groups of 4-5. Cages contained ⅛″ corncob bedding (7092A, Envigo, Huntingdon, UK) enriched with ˜6 g of cotton fiber nestlets (Ancare Corp., Bellmore, N.Y.). Access to food and water was ad libitum unless otherwise specified. For HFD studies, 8 week old C57BL/6J males were randomly assigned to either a 45% kcal from fat diet (HFD; D12451, Research Diets Inc., New Brunswick, N.J.) or 10% kcal from fat diet designed to match D12451 for other components (SD; D12450B, Research Diets Inc). Mice were maintained on these diets for up to 22 weeks as indicated. Ob/ob mice were fed the vivarium stock diet which contained 16% kcal from fat (2020×, Envigo). Polypropylene feeding tubes (20 g×38 mm; Instech Laboratories Inc., Plymouth, Pa.) were utilized for gavage and dipped into a 1 g/ml sucrose solution immediately prior to treatment to induce salivation.
HFD-fed mice were randomly assigned to experimental groups receiving either vehicle (water) or sphingolipid-like compound 893 at 60 mg/kg or 120 mg/kg by oral gavage on Mondays, Wednesdays, and Fridays. Mice were maintained on the HFD throughout the study. The SD group was treated with vehicle on the same schedule. Group size was initially n=10; one animal from the 60 mg/kg group that was euthanized due to gavage error was excluded from the analysis making this group n=9. All treatments and measurements were performed between ZT8 and ZT10 unless otherwise noted. Body weight and food consumption were monitored Monday-Friday. Body composition was determined weekly in live animals using an EchoMRI™ Body Composition Analyzer (EchoMRI™ Corp., Singapore). Mice were euthanized and tissues collected 4 h after treatment. Where indicated, mice were fasted for 6 h.

CCCCCCCCc1ccc([C@H]2CCN[C@@H]2CO)cc1.Cl [compound 893]
Fat mass gain (HFD-fed mice, 60 mg/kg): gained fat mass at a similar rate to mice fed a standard diet | Body weight versus chow-fed controls (HFD-fed mice, 60 mg/kg by gavage Mon/Wed/Fri): no longer gained weight, but did not match chow-fed controls | Body weight change during treatment (HFD-fed mice, 60 mg/kg or 120 mg/kg by gavage Mon/Wed/Fri): dose-dependent weight loss | Body weight versus chow-fed controls (HFD-fed mice, 120 mg/kg by gavage Mon/Wed/Fri, after 2 weeks (6 doses)): no longer statistically different from that of mice continuously fed a standard chow diet | Tolerability (HFD-fed mice, 60 or 120 mg/kg Mon/Wed/Fri): well-tolerated | Body composition underlying weight loss (fat mass, lean mass) (HFD-fed mice, 60 or 120 mg/kg, EchoMRI): a decline in fat mass with little change in lean mass | Reduction of body weight (HFD-fed wild type mice, six doses of 120 mg/kg over 2 weeks): 10%
